Assay results from US8222247B2, “Modulators of glucocorticoid receptor, AP-1, and/or NF-kappabeta activity and use thereof” (Bristol-Myers Squibb Company, priority 2006, dated 2012).

Molecular target: T1, human glucocorticoid receptor (Homo sapiens, UniProt P04150)
T1 construct: purified human recombinant full-length glucocorticoid receptor (2 nM); purchased Invitrogen Part #2893
T1 sequence (P04150 1-777): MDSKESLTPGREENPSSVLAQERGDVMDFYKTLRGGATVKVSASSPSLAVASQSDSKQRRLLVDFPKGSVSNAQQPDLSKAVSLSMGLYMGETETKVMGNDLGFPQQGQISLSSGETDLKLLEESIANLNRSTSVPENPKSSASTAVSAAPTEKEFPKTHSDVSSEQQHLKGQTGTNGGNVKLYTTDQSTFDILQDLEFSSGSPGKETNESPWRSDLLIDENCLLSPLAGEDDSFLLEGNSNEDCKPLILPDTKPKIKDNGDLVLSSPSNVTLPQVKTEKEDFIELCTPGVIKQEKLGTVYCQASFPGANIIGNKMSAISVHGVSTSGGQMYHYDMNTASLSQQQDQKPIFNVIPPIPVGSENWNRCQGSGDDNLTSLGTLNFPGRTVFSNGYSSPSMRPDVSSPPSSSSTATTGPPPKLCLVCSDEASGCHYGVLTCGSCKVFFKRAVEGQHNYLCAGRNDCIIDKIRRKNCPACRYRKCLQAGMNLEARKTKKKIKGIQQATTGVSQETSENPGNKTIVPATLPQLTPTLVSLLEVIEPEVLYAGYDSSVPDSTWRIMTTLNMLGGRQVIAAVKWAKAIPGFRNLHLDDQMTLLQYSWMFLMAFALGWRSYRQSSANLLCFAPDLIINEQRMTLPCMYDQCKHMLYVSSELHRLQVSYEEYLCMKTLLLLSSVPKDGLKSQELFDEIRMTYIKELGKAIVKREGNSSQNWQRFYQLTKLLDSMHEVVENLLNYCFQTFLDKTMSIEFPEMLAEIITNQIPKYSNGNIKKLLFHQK
Experiment: Glucocorticoid Receptor Binding Assay (I), fluorescence polarization competitor kit
Conditions: purified human recombinant full-length GR, Fluormone GS Red
Experimental: Glucocorticoid Receptor Binding Assay (I)^a
In order to assess the affinity of test compounds for the human glucocorticoid receptor, a commercially available kit was used (Glucocorticoid Receptor Competitor Assay Kit, Invitrogen Part #2893). Briefly, purified human recombinant full-length glucocorticoid receptor (2 nM) was mixed with fluorescently labeled glucocorticoid (1 nM Fluormone GS Red) in the presence or absence of test compound. After two hour incubation at room temperature in the dark, the fluorescence polarization (FP) of the samples was measured. The FP of a mixture of receptor, fluorescent probe (i.e. Fluormone GS Red) and 5 μM dexamethasone represented background fluorescence or 100% inhibition, whereas, the FP of the mixture without dexamethasone (but in the presence of vehicle) was taken to be 100% binding. The percentage inhibition of test compounds were then compared to the sample with 5 μM dexamethasone and expressed as % relative binding activity with dexamethasone being 100% and no inhibition is 0%. Test compounds were analyzed in the concentration range from 8.5E-05 μM to 5 μM.

Row | Ki | SMILES
1 | 5.06 nM | CC(C)(C(=O)Nc1nncs1)C(c1ccccc1)c1ccc(Br)s1 (single isomer, unassigned) [Example 84, 3-(5-bromo-2-thienyl)-2,2-dimethyl-3-phenyl-N-1,3,4-thiadiazol-2-ylpropanamide]
2 | 11.7 nM | CC(C)(C(=O)Nc1nncs1)C(c1ccccc1)c1ccc(-c2ccc(C(=O)N3CCCCC3)cc2)s1 (centres unmarked) [Example 46, 2,2-dimethyl-3-phenyl-3-(5-(4-(1-piperidinylcarbonyl)phenyl)-2-thienyl)-N-1,3,4-thiadiazol-2-ylpropanamide]
3 | 1.96 nM | C[C@@H](C(=O)Nc1nncs1)[C@H](c1cccc(F)c1)c1ccc(Br)s1 [Example 97, (2R,3R)-3-(5-bromo-2-thienyl)-3-(3-fluorophenyl)-2-methyl-N-1,3,4-thiadiazol-2-ylpropanamide]
4 | 160 nM | C[C@@H](C(=O)Nc1nncs1)[C@@H](c1cccc(F)c1)c1ccc(-c2ccc(C(=O)N3CCOCC3)c(Cl)c2)s1 [Example 130, (2R,3S)-3-(5-(3-chloro-4-(4-morpholinylcarbonyl)phenyl)-2-thienyl)-3-(3-fluorophenyl)-2-methyl-N-1,3,4-thiadiazol-2-ylpropanamide]
5 | 2.79 nM | CC(C(=O)Nc1nncs1)C(c1cccc(F)c1)c1ccc(Br)s1 (mixture of isomers) [Example 93, 3-(5-bromo-2-thienyl)-3-(3-fluorophenyl)-2-methyl-N-1,3,4-thiadiazol-2-ylpropanamide]
6 | 4.59 nM | CN(C)C(=O)c1ccc(-c2ccc(C(c3cc(F)cc(F)c3)C(C)(C)C(=O)Nc3nncs3)s2)cc1Cl (centres unmarked) [Example 91, 2-chloro-4-(5-(1-(3,5-difluorophenyl)-2,2-dimethyl-3-oxo-3-(1,3,4-thiadiazol-2-ylamino)propyl)-2-thienyl)-N,N-dimethylbenzamide]
7 | 36.8 nM | CC(C)(C(=O)Nc1nncs1)C(c1ccccc1)c1ccc(-c2ccc(C(=O)N3CCC(F)(F)CC3)cc2)s1 (centres unmarked) [Example 55, 3-(5-(4-((4,4-Difluoro-1-piperidinyl)carbonyl)phenyl)-2-thienyl)-2,2-dimethyl-3-phenyl-N-1,3,4-thiadiazol-2-ylpropanamide]
8 | 4.85 nM | C[C@@H](C(=O)Nc1nncs1)[C@H](c1ccccc1)c1ccc(-c2ccc(C(=O)N3CCOCC3)cc2)s1 (stereo in doubt) [Example 152, (2R,3R)-2-methyl-3-(5-(4-(4-morpholinylcarbonyl)phenyl)-2-thienyl)-3-phenyl-N-1,3,4-thiadiazol-2-ylpropanamide]
9 | 277 nM | C[C@H](C(=O)Nc1nncs1)[C@H](c1cccc(F)c1)c1ccc(-c2ccc(C(=O)N(C)C)cc2)s1 [Example 128, 4-(5-((1R,2S)-1-(3-fluorophenyl)-2-methyl-3-oxo-3-(1,3,4-thiadiazol-2-ylamino)propyl)-2-thienyl)-N,N-dimethylbenzamide]
10 | 5.71 nM | C[C@H](C(=O)Nc1nncs1)[C@@H](c1cccc(F)c1)c1ccc(-c2ccc(C(=O)N(C)C)cc2)s1 [Example 125, 4-(5-((1S,2S)-1-(3-fluorophenyl)-2-methyl-3-oxo-3-(1,3,4-thiadiazol-2-ylamino)propyl)-2-thienyl)-N,N-dimethylbenzamide]
11 | 101 nM | CC(C)(C(=O)Nc1nncs1)[C@H](c1cccc(F)c1)c1ccc(-c2ccc(C(=O)N3CCOCC3)c(Cl)c2)s1 [Example 61, (3S)-3-(5-(3-chloro-4-(4-morpholinylcarbonyl)phenyl)-2-thienyl)-3-(3-fluorophenyl)-2,2-dimethyl-N-1,3,4-thiadiazol-2-ylpropanamide]
12 | 220 nM | C[C@H](C(=O)Nc1nncs1)[C@H](c1cccc(F)c1)c1ccc(-c2ccc(C(=O)N(C)C)c(Cl)c2)s1 [Example 126, 2-chloro-4-(5-((1R,2S)-1-(3-fluorophenyl)-2-methyl-3-oxo-3-(1,3,4-thiadiazol-2-ylamino)propyl)-2-thienyl)-N,N-dimethylbenzamide]
13 | 79.7 nM | CCCN(CCC)C(=O)c1ccc(-c2ccc(C(c3ccccc3)C(C)(C)C(=O)Nc3nncs3)s2)cc1 (centres unmarked) [Example 51, 4-(5-(2,2-dimethyl-3-oxo-1-phenyl-3-(1,3,4-thiadiazol-2-ylamino)propyl)-2-thienyl)-N,N-dipropylbenzamide]
14 | 565 nM | CC(C)(C(=O)Nc1nncs1)[C@H](c1cccc(F)c1)c1ccc(-c2ccc(C(=O)O)c(F)c2)s1 [Example 63, 2-fluoro-4-(5-((1S)-1-(3-fluorophenyl)-2,2-dimethyl-3-oxo-3-(1,3,4-thiadiazol-2-ylamino)propyl)-2-thienyl)benzoic acid]
15 | 17.4 nM | CCN(CC)C(=O)c1ccc(-c2ccc(C(c3ccccc3)C(C)(C)C(=O)Nc3nncs3)s2)cc1Cl (centres unmarked) [Example 48, 2-chloro-4-(5-(2,2-dimethyl-3-oxo-1-phenyl-3-(1,3,4-thiadiazol-2-ylamino)propyl)-2-thienyl)-N,N-diethylbenzamide]
16 | 1.52 nM | CNC(=O)c1ccc(-c2ccc([C@H](c3cccc(F)c3)C(C)(C)C(=O)Nc3nncs3)s2)cc1 [Example 75, 4-(5-((1R)-1-(3-fluorophenyl)-2,2-dimethyl-3-oxo-3-(1,3,4-thiadiazol-2-ylamino)propyl)-2-thienyl)-N-methylbenzamide]
17 | 27 nM | CC(C)(C)NC(=O)c1ccc(-c2ccc([C@H](c3cccc(F)c3)C(C)(C)C(=O)Nc3nncs3)s2)cc1 [Example 76, N-tert-butyl-4-(5-((1R)-1-(3-fluorophenyl)-2,2-dimethyl-3-oxo-3-(1,3,4-thiadiazol-2-ylamino)propyl)-2-thienyl)benzamide]
18 | 1.91 nM | C[C@@H](C(=O)Nc1nncs1)[C@H](c1cccc(F)c1)c1ccc(-c2ccc(C(=O)N3CCC3)c(F)c2)s1 [Example 122, (2R,3R)-3-(5-(4-(1-azetidinylcarbonyl)-3-fluorophenyl)-2-thienyl)-3-(3-fluorophenyl)-2-methyl-N-1,3,4-thiadiazol-2-ylpropanamide]
19 | 6.97 nM | CC(C)(C(=O)Nc1nccs1)C(c1ccccc1)c1ccc(Br)s1 (centres unmarked) [Example 4, 3-(5-bromo-2-thienyl)-2,2-dimethyl-3-phenyl-N-1,3-thiazol-2-ylpropanamide]
20 | 24.5 nM | CC(C)(C(=O)Nc1nncs1)[C@@H](c1cccc(F)c1)c1ccc(-c2ccc(C(=O)O)c(F)c2)s1 [Example 78, 2-fluoro-4-(5-((1R)-1-(3-fluorophenyl)-2,2-dimethyl-3-oxo-3-(1,3,4-thiadiazol-2-ylamino)propyl)-2-thienyl)benzoic acid]
21 | 2.93 nM | CC(C)(C(=O)Nc1nncs1)C(c1cc(F)cc(F)c1)c1ccc(Br)s1 (centres unmarked) [Example 19, 3-(5-bromo-2-thienyl)-3-(3,5-difluorophenyl)-2,2-dimethyl-N-1,3,4-thiadiazol-2-ylpropanamide]
22 | 5.75 nM | COc1ccc(-c2ccc(C(c3cccc(F)c3)C(C)(C)C(=O)Nc3nncs3)s2)cc1 (centres unmarked) [Example 35, 3-(3-fluorophenyl)-3-(5-(4-methoxyphenyl)-2-thienyl)-2,2-dimethyl-N-1,3,4-thiadiazol-2-ylpropanamide]
23 | 66.9 nM | CC(C)(C(=O)Nc1nncs1)[C@H](c1cccc(F)c1)c1ccc(-c2ccc(C(=O)N3CCOCC3)cc2)s1 [Example 59, (3S)-3-(3-fluorophenyl)-2,2-dimethyl-3-(5-(4-(4-morpholinylcarbonyl)phenyl)-2-thienyl)-N-1,3,4-thiadiazol-2-ylpropanamide]
